# Source: patent US8518958B2, “Pyrido [2,3-D] pyrimidines and their use as kinase inhibitors” (Forma Therapeutics, Inc., priority 2006, dated 2013)
# Assays:
# [1] = system: HT-29 tumor cells; assay: Anti-proliferative activity, SRB assay; format: cell-based, human; conditions: Homo sapiens, HT-29, 72 h, 72 hours exposure, read-out: CELLULAR IC50 HT-29
# How it was run: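 Cells at 3,000-15,000/well, plated 24 h before compound, exposed to a concentration range for 72 hours. Proliferation measured by SRB staining after cold TCA fixation, absorbance at OD570; IC50 estimated from % inhibition versus DMSO-treated cells.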
# [2] = target: B-Raf delta1-415 (Homo sapiens, UniProt P15056); assay: B-Raf kinase inhibition (MAPH filter plate, 33P-ATP, MEK1 substrate); conditions: read-out: Biochemical IC50 B-Raf
# Chain of B-Raf delta1-415 (P15056 416-766): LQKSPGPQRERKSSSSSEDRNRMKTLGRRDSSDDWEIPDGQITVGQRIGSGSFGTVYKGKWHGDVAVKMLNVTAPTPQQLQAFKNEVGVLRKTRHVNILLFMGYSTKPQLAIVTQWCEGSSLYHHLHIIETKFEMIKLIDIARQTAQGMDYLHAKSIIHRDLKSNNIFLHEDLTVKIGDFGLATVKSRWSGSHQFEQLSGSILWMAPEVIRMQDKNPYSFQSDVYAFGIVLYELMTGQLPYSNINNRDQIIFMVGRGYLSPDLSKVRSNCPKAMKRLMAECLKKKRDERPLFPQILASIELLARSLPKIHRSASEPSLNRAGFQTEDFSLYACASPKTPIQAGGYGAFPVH
# How it was run: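 Radiometric filter-binding assay with B-Raf delta1-415 at a level giving 50% turnover, MEK1 substrate and 33P-ATP (12.5 μCi/ml) in 20 mM Mops pH 7.0 with Mg/Mn, 1 h at room temperature. Inhibitor dilution series from 10 μM; EDTA-stopped reactions captured on phosphocellulose filters, counted by scintillation for IC50.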
IC50 [1],IC50 [2],Structure (SMILES)
< 10000 nM,< 500 nM,"COn1c(=O)c(-c2c(Cl)cccc2Cl)cc2cnc(Nc3ccc(N4CCCC4)cc3)nc21 [Compound 105, 6-(2,6-Dichlorophenyl)-8-methoxy-2-(4-pyrrolidinophenyl)-amino-pyrido[2,3-d]pyrimidin-7-one]"
< 1000 nM,< 100 nM,O=c1c(-c2c(F)cccc2Cl)cc2cnc(Nc3ccc(N4CCOCC4)cc3)nc2n1OC[C@@H](O)CO [Compound 148]
< 1000 nM,< 500 nM,"COn1c(=O)c(-c2c(Cl)cccc2Cl)cc2cnc(Nc3ccc(CNCCO)cc3)nc21 [Compound 178, 2-(4-(2-hydroxyethylamino)methyl-phenyl)-amino-6-(2,6-dichlorophenyl)-8-methoxy-pyrido[2,3-d]pyrimidin-7-one]"
< 1000 nM,< 500 nM,"COn1c(=O)c(-c2c(Cl)cccc2Cl)cc2cnc(Nc3ccc(/C=N/O)cc3)nc21 [Compound 210, 2-(4-(hydroximino)methylphenyl)-amino-6-(2,6-dichlorophenyl)-8-methoxy-pyrido[2,3-d]pyrimidin-7-one]"
< 1000 nM,< 500 nM,"CCN1CCN(c2ccc(Nc3ncc4cc(-c5c(Cl)cccc5Cl)c(=O)n(OC)c4n3)cc2)CC1 [Compound 189, 6-(2,6-Dichlorophenyl)-2-(4-(4-ethylpiperazino)phenyl)-amino-8-methoxy-pyrido[2,3-d]pyrimidin-7-one]"
< 1000 nM,< 100 nM,"COn1c(=O)c(-c2c(Cl)cccc2Cl)cc2cnc(Nc3ccc(N4CCOCC4)cc3)nc21 [Compound 98, 6-(2,6-Dichlorophenyl)-8-methoxy-2-(4-morpholinophenyl)-amino-pyrido[2,3-d]pyrimidin-7-one]"
< 1000 nM,< 500 nM,"CC(C)N1CCN(c2ccc(Nc3ncc4cc(-c5c(Cl)cccc5Cl)c(=O)n(OCC5CCOCC5)c4n3)cc2)CC1 [Compound 206, 6-(2,6-Dichlorophenyl)-8-(tetrahydropyran-4-ylmethyl)oxy-2-(4-(4-(1-methylethyl)piperazino)phenyl)-amino-pyrido[2,3-d]pyrimidin-7-one]"
< 1000 nM,< 100 nM,"COn1c(=O)c(-c2c(Cl)cccc2Cl)cc2cnc(Nc3ccc(OCCO)cc3)nc21 [Compound 89, 6-(2,6-Dichlorophenyl)-2-(4-(2-hydroxyethyl)oxyphenyl) amino-8-methoxy-pyrido[2,3-d]pyrimidin-7-one]"
< 1000 nM,< 100 nM,"COn1c(=O)c(-c2c(Cl)cccc2Cl)cc2cnc(Nc3cc(C(=O)N4CCOCC4)n(C)c3)nc21 [Compound 137, 6-(2,6-Dichlorophenyl)-8-methoxy-2-(5-morpholinocarbonyl-1-methyl-pyrrol-3-yl)-amino-pyrido[2,3-d]pyrimidin-7-one]"
< 1000 nM,< 500 nM,"COCCOn1c(=O)c(-c2c(Cl)cccc2Cl)cc2cnc(Nc3cc(C(=O)NCCN4CCCC4)n(C)c3)nc21 [Compound 99, 6-(2,6-Dichlorophenyl)-8-(2-methoxyethyl)oxy-2-(5-(2-pyrrolidinoethyl)aminocarbonyl-1-methyl-pyrrol-3-yl)-amino-pyrido[2,3-d]pyrimidin-7-one]"
< 1000 nM,< 100 nM,"COn1c(=O)c(-c2c(F)cccc2Cl)cc2cnc(Nc3cc(C(=O)N4CCNCC4)n(C)c3)nc21 [Compound 208, 6-(2-Chloro-6-fluorophenyl)-8-methoxy-2-(5-piperazinocarbonyl-1-methyl-pyrrol-3-yl)-amino-pyrido[2,3-d]pyrimidin-7-one]"
< 1000 nM,< 100 nM,"COn1c(=O)c(-c2c(Cl)cccc2Cl)cc2cnc(Nc3ccc(N4CCNCC4)cc3)nc21 [Compound 184, 6-(2,6-Dichlorophenyl)-8-methoxy-2-(4-piperazinophenyl)-amino-pyrido[2,3-d]pyrimidin-7-one]"
< 1000 nM,< 100 nM,"COn1c(=O)c(-c2c(F)cccc2Cl)cc2cnc(Nc3ccc(N4CCN(S(C)(=O)=O)CC4)cc3)nc21 [Compound 223, 6-(2-Chloro-6-fluorophenyl)-8-methoxy-2-(4-(4-methylsulfonylpiperazino)phenyl)-amino-pyrido[2,3-d]pyrimidin-7-one]"
< 1000 nM,< 100 nM,"COn1c(=O)c(-c2c(Cl)cccc2Cl)cc2cnc(Nc3cccc(S(C)(=N)=O)c3)nc21 (centres unmarked) [Compound 161, 6-(2,6-Dichlorophenyl)-8-methoxy-2-(3-methyliminosulfonylphenyl)-amino-pyrido[2,3-d]pyrimidin-7-one]"
< 1000 nM,< 500 nM,"COn1c(=O)c(-c2c(Cl)cccc2Cl)cc2cnc(Nc3ccc(SCCCO)cc3)nc21 [Compound 158, 6-(2,6-Dichlorophenyl)-2-(4-(3-hydroxypropyl)thiophenyl)-amino-8-methoxy-pyrido[2,3-d]pyrimidin-7-one]"
< 1000 nM,< 500 nM,"COn1c(=O)c(-c2c(Cl)cccc2Cl)cc2cnc(Nc3ccc(CC(=O)NCCN4CCCC4)cc3)nc21 [Compound 115, 6-(2,6-Dichlorophenyl)-8-methoxy-2-(4-(2-pyrrolidinoethylaminocarbon-ylmethyl)phenyl)-amino-pyrido[2,3-d]pyrimidin-7-one]"

IC50 [1],IC50 [2],Structure (SMILES)
< 1000 nM,< 100 nM,"COn1c(=O)c(-c2c(Cl)cccc2Cl)cc2cnc(Nc3ccc(S(=O)(=O)CCCO)cc3)nc21 [Compound 160, 6-(2,6-Dichlorophenyl)-2-(4-(3-hydroxypropyl)sulfonylphenyl)-amino-8-methoxy-pyrido[2,3-d]pyrimidin-7-one]"
< 1000 nM,> 1000 nM,"COn1c(=O)c(-c2c(Cl)cccc2Cl)cc2cnc(Nc3cccc(CN4CCC(F)(F)C4)c3)nc21 [Compound 183, 6-(2,6-Dichlorophenyl)-2-(3-(3,3-difluoropyrrolidinomethyl)phenyl)-amino-8-methoxy-pyrido[2,3-d]pyrimidin-7-one]"
< 1000 nM,< 100 nM,COn1c(=O)c(-c2c(F)cccc2Cl)cc2cnc(Nc3ccc(N4CCOCC4)cc3)nc21 [Compound 136]
< 1000 nM,< 500 nM,"COc1cccc(Nc2ncc3cc(-c4c(F)cccc4Cl)c(=O)n(OC[C@H](O)CO)c3n2)c1 [Compound 76, 6-(2-Chloro-6-fluorophenyl)-8-(2-(R)-2,3-dihydroxypropyl)oxy-2-(3-methoxyphenyl)amino-pyrido[2,3-d]pyrimidin-7-one]"
< 10000 nM,> 1000 nM,"COn1c(=O)c(-c2c(Cl)cccc2Cl)cc2cnc(Nc3ccc(C)cc3)nc21 [Compound 150, 6-(2,6-Dichlorophenyl)-2-(4-methylphenyl)-amino-8-methoxy-pyrido[2,3-d]pyrimidin-7-one]"
< 10000 nM,< 100 nM,"COn1c(=O)c(-c2c(Cl)cccc2Cl)cc2cnc(Nc3ccc(CO)cc3)nc21 [Compound 144, 6-(2,6-Dichlorophenyl)-2-(4-hydroxymethylphenyl)-amino-8-methoxy-pyrido[2,3-d]pyrimidin-7-one]"
< 1000 nM,< 100 nM,O=c1c(-c2c(F)cccc2Cl)cc2cnc(Nc3ccc(N4CCNCC4)cc3)nc2n1OCC1CCOCC1 [Compound 215]
< 10000 nM,< 100 nM,"COn1c(=O)c(-c2c(Cl)cccc2Cl)cc2cnc(Nc3cc(C(=O)NC[C@H](O)CO)n(C)c3)nc21 [Compound 118, 6-(2,6-Dichlorophenyl)-2-(5-(2-(S)-2,3-dihydroxyethylamino)carbonyl-1-methyl-pyrrol-3-yl)-amino-8-methoxy-pyrido[2,3-d]pyrimidin-7-one]"
< 10000 nM,< 500 nM,"COn1c(=O)c(-c2c(Cl)cccc2Cl)cc2cnc(Nc3ccon3)nc21 [Compound 85, 6-(2,6-Dichlorophenyl)-2-(isoxazol-3-yl)-amino-8-methoxy-pyrido[2,3-d]pyrimidin-7-one]"
< 10000 nM,< 500 nM,"COn1c(=O)c(-c2c(Cl)cccc2Cl)cc2cnc(NCc3ccncc3)nc21 [Compound 147, 6-(2,6-Dichlorophenyl)-8-methoxy-2-pyrid-4-ylmethylamino-pyrido[2,3-d]pyrimidin-7-one]"
< 1000 nM,< 100 nM,"COn1c(=O)c(-c2c(F)cccc2Cl)cc2cnc(Nc3ccc(N4CCNCC4)cc3)nc21 [Compound 198, 6-(2-Chloro-6-fluorophenyl)-8-methoxy-2-(4-piperazinophenyl)-amino-pyrido[2,3-d]pyrimidin-7-one]"
< 1000 nM,< 100 nM,"COn1c(=O)c(-c2c(F)cccc2Cl)cc2cnc(Nc3ccc(N4CCNCC4)c(Cl)c3)nc21 [Compound 199, 6-(2-Chloro-6-fluorophenyl)-2-(3-chloro-4-piperazinophenyl)-amino-8-methoxy-pyrido[2,3-d]pyrimidin-7-one]"
< 10000 nM,< 10000 nM,"COn1c(=O)c(-c2c(Cl)cccc2Cl)cc2cnc(NCc3ccccc3)nc21 [Compound 145, 6-(2,6-Dichlorophenyl)-8-methoxy-2-phenylmethylamino-pyrido[2,3-d]pyrimidin-7-one]"
< 1000 nM,< 500 nM,"COn1c(=O)c(-c2c(Cl)cccc2Cl)cc2cnc(Nc3ccc(OCCN4CCCC4)cc3)nc21 [Compound 91, 6-(2,6-Dichlorophenyl)-8-methoxy-2-(4-(2-pyrrolidinoethyl)oxyphenyl) amino-pyrido[2,3-d]pyrimidin-7-one]"
< 1000 nM,< 500 nM,"COn1c(=O)c(-c2c(Cl)cccc2Cl)cc2cnc(Nc3ccc(CN4CCOCC4)cc3)nc21 [Compound 100, 6-(2,6-Dichlorophenyl)-8-methoxy-2-(4-morpholinomethylphenyl)-amino-pyrido[2,3-d]pyrimidin-7-one]"
